Source: patent US20170304195A1, “PHARMACEUTICAL FORMULATIONS FOR THE ORAL DELIVERY OF PEPTIDE OR PROTEIN DRUGS” (Cyprumed GmbH, priority 2014, published 2017)
Read-outs that look alike come from different tables or passages of the source.

Key:
[1] = rat, in vivo
Method: (§1) Blood was taken from tail vessels at the time points 0, 10, 20, 40, 60, 90, 120 and 180 min after dosing.

in vivo [2] = details: Sprague Dawley, rat, sc, 0.1 mg/kg
Method: as §1

[3] = pH of dissolved solid powder mixtures (Example 17); assay type: physicochemical
in vivo [4] = details: Sprague Dawley, rat, sc
Method: (§2) Teriparatide (PTH1-34) was dosed subcutaneously in volume of 1 ml/kg (final concentration 0.024 mg/ml teriparatide) to anaesthetized rats. […] Blood was taken from tail vessels at the time points 0, 10, 20, 40, 60, 90, 120 and 180 min after dosing. The teriparatide plasma concentrations were determined using commercial pTH (1-34) human ELISA kit (Biovendor, EU, cat. number RS-1163.0001).

[5] = rat, in vivo; remark: listed apart in the source
Method: as §2

[6] = study comparing aprotinin with aminocaproic acid; cited from earlier work

CCNC(=O)[C@@H]1CCCN1C(=O)[C@H](CCCNC(=N)N)NC(=O)[C@H](CC(C)C)NC(=O)[C@@H](CC(C)C)NC(=O)[C@H](Cc1ccc(O)cc1)NC(=O)[C@H](CO)NC(=O)[C@H](Cc1c[nH]c2ccccc12)NC(=O)[C@H](Cc1c[nH]cn1)NC(=O)[C@@H]1CCC(=O)N1 [Leuprolide]
F [1]: 100 ± 19.5%
AUC(0-t) (in vivo [2]): 130 ng·h/mL
Cmax (in vivo [2]): 78.9 ± 14.7 ng/mL
Tmax (in vivo [2]): 20 to 40 min

CC[C@H](C)[C@H](NC(=O)[C@H](CCC(=O)O)NC(=O)[C@H](CO)NC(=O)[C@@H](NC(=O)[C@@H](N)CO)C(C)C)C(=O)N[C@@H](CCC(N)=O)C(=O)N[C@@H](CC(C)C)C(=O)N[C@@H](CCSC)C(=O)N[C@@H](Cc1cnc[nH]1)C(=O)N[C@@H](CC(N)=O)C(=O)N[C@@H](CC(C)C)C(=O)NCC(=O)N[C@@H](CCCCN)C(=O)N[C@@H](Cc1cnc[nH]1)C(=O)N[C@@H](CC(C)C)C(=O)N[C@@H](CC(N)=O)C(=O)N[C@@H](CO)C(=O)N[C@@H](CCSC)C(=O)N[C@@H](CCC(=O)O)C(=O)N[C@@H](CCCN=C(N)N)C(=O)N[C@H](C(=O)N[C@@H](CCC(=O)O)C(=O)N[C@@H](Cc1c[nH]c2ccccc12)C(=O)N[C@@H](CC(C)C)C(=O)N[C@@H](CCCN=C(N)N)C(=O)N[C@@H](CCCCN)C(=O)N[C@@H](CCCCN)C(=O)N[C@@H](CC(C)C)C(=O)N[C@@H](CCC(N)=O)C(=O)N[C@@H](CC(=O)O)C(=O)N[C@H](C(=O)N[C@@H](Cc1cnc[nH]1)C(=O)N[C@@H](CC(N)=O)C(=O)N[C@@H](Cc1ccccc1)C(=O)O)C(C)C)C(C)C [PTH(1-34), Teriparatide]
Dissolution pH in 5 ml Aqua purificata ([3]; CuSO4 10 mg, lauroyl carnitine 10 mg, MCC 50 mg, no buffer): 3.6
Dissolution pH in 5 ml Aqua purificata ([3]; CuSO4 10 mg, lauroyl carnitine 10 mg, gelatin capsule 50 mg, no buffer): 4.4
Dissolution pH in 5 ml Aqua purificata ([3]; CuSO4 10 mg, lauroyl carnitine 10 mg, lactose 50 mg, 10 mg TRIS): 6.5
Dissolution pH in 5 ml Aqua purificata ([3]; CuSO4 10 mg, lauroyl carnitine 10 mg, lactose 50 mg, buffer cell empty): 3.2
Dissolution pH in 5 ml Aqua purificata ([3]; CuSO4 10 mg, sucrose laurate 10 mg, lactose 50 mg, no buffer): 5.0
Dissolution pH in 5 ml Aqua purificata ([3]; ZnCl2 10 mg, lauroyl carnitine 10 mg, MCC 50 mg, 5 mg TRIS): 6.3
Dissolution pH in 5 ml Aqua purificata ([3]; ZnCl2 10 mg, lauroyl carnitine 10 mg, MCC 50 mg, no buffer): 3.5
Dissolution pH in 5 ml Aqua purificata ([3]; ZnCl2 10 mg, lauroyl carnitine 10 mg, gelatin capsule 50 mg, 10 mg TRIS): 6.8
Dissolution pH in 5 ml Aqua purificata ([3]; ZnCl2 10 mg, lauroyl carnitine 10 mg, gelatin capsule 50 mg, no buffer): 4.3
Dissolution pH in 5 ml Aqua purificata ([3]; ZnCl2 10 mg, lauroyl carnitine 10 mg, lactose 50 mg, 10 mg TRIS): 7.1
Dissolution pH in 5 ml Aqua purificata ([3]; ZnCl2 10 mg, lauroyl carnitine 10 mg, lactose 50 mg, buffer cell empty): 2.9
Dissolution pH in 5 ml Aqua purificata ([3]; ZnSO4 10 mg, lauroyl carnitine 10 mg, lactose 50 mg, 10 mg TRIS): 7.5
Dissolution pH in 5 ml Aqua purificata ([3]; ZnSO4 10 mg, lauroyl carnitine 10 mg, lactose 50 mg, no buffer): 3.1
Dissolution pH in 5 ml Aqua purificata ([3]; ZnSO4 10 mg, sucrose laurate 10 mg, lactose 50 mg, no buffer): 6.5
Tmax (in vivo [4]): 10 min
half-life (in vivo [4]): 44 ± 8 min
F [5]: 100 ± 23%
plasma half-life of PTH(1-34) compared to s.c. administration, in words [5]: increased plasma half-life

Aprotinin
increase of mortality [6]: 64%
